# In patent US12344610B2, “APOL1 inhibitors and methods of use” (Maze Therapeutics, Inc., priority 2022, dated 2025):
# System: human immortalized podocytes inducibly expressing APOL1 G2
# Assay: APOL1 G2 podocyte cell rescue assay (Example B4)
# Type: cell-based
# Details: Homo sapiens, differentiated human podocytes, doxycycline-induced APOL1 G2, CellTiter-Glo; geometric mean of at least 2 runs; † = single run
# Description: APOL1 G2 human immortalized podocyte viability assay for measurement of cytotoxicity reversal by compound (APOL1 G2 podocyte cell rescue assay).
# Cell Handling. The hTERT-immortalized kidney podocyte cell line was procured from the laboratory of Dr. Moin Saleem at the University of Bristol, UK (Nephrology 17 (2012) 525-531; doi:10.1111/j.1440-1797.2012.01619.x; herein incorporated by reference in its entirety). Parental and engineered cell lines were cultured in RPMI 1640 media (Gibco, 11875093) with 10% Tet System Approved FBS (Takara, 631101). The engineered cell line was maintained under selection (2.5 μg/mL puromycin). Cell lines were maintained and engineered at 33° C. Cell cultures were transferred to 37° C. for 10 to 14 days to initiate differentiation (Nephrology 17 (2012) 525-531; doi:10.1111/j.1440-1797.2012.01619.x; herein incorporated by reference in its entirety). During this time, media was refreshed every 3 days. After differentiation, cells engineered to inducibly express APOL1 G2 were used in the podocyte cell rescue assay.
# Cell Line Engineering. The APOL1 G2 coding sequence was cloned into the pLVX-TetOne-Puro vector and verified by sequencing (Genscript Biotech). This construct was designed to have a C-terminal HiBiT tag. Lentiviral packaging of the vector was conducted using the Lenti-X Packaging Single Shots (VSVG) system according to manufacturer instructions (Takara Bio, 631275). A stable cell line was generated by transfecting the parental podocyte cell line with the concentrated virus in media with 5 μg/mL polybrene (Sigma, TR-1003-G). Media was changed the following day. 72 hours post transfection, 2.5 μg/mL puromycin (Gibco, A1113803) was added to the cells and cells were maintained in selection media thereafter. This APOL1 G2 stable cellular pool was subjected to a stringent limiting dilution to generate a pure stable clone (Podocyte/pLVX-TetOne APOL1 G2/clone D10) capable of inducible expression of APOL1 G2.
# Assay Setup. T175 flasks containing differentiated podocytes engineered to inducibly express APOL1 G2 (Podocyte/pLVX-TetOne APOL1 G2/clone D10) were washed once with 15 mL of DPBS (Thermo Fisher, 14190-144). These flasks were each trypsinized with 3 mL of prewarmed TrypLE Express (Gibco, 12605-010) and incubated at 37° C. with 5% CO2 until cells detached and neutralized with 7 mL of prewarmed assay media (RPMI 1640 media with 10% Tet System Approved FBS, no selection agent). Cells were pooled and the resulting suspension was gently mixed. The cell suspension was counted using a Countess Cell Counting Chamber (Invitrogen) and the cell concentration was adjusted to 240,000 cells/mL using assay media. Next, 25 μL of a 480 ng/mL working stock of doxycycline diluted in assay media was added to an assay ready plate. All experiments were performed in 384-well, white, solid bottom, tissue culture treated plates (Greiner, 781080). The assay ready compound plates were generated with duplicate 8-point compound dilution series that consisted of 3-fold stepwise dilutions (0.4% DMSO final). The plates were centrifuged at 1000 rpm for 1 minute. 25 μL of diluted cell suspension (final cell density=6,000 cells/well) was added to each well. The plates were centrifuged again at 1000 rpm for 1 minute and then incubated in a humidified incubator (37° C. with 5% CO2). After 95 hours, the assay plates were removed from the incubator and allowed to equilibrate to room temperature for 1 hour. CellTiter-Glo® reagent (Promega, G7570) was prepared according to the manufacturer's instructions. 25 μL of CellTiter-Glo® reagent was added to each well. Assay plates were sealed with foil and mixed for 5 minutes on an orbital shaker (500 rpm) to induce cell lysis. Plates were centrifuged at 1000 rpm for 1 minute. 10 minutes after CellTiter-Glo® reagent addition, an Envision plate reader (Perkin Elmer) was used to measure the luminescent signal of each assay plate. Collaborative Drug Discovery software was utilized for graphing data. […]
row,SMILES,EC50 [nM]
1,"CC(O)c1ncc(OCCN2CCC3(CC2)C(=O)Nc2ccc(C(F)F)cc23)cc1C(F)(F)F (single isomer, unassigned) [Compound 287, 5-(difluoromethyl)-1′-[2-({6-[(1S) or (1R)-1-hydroxyethyl]-5-(trifluoromethyl)pyridin-3-yl}oxy)ethyl]-1,2-dihydrospiro[indole-3,4′-piperidin]-2-one]",17.7
2,"CC[C@]1(O)C[C@H](N2C(=O)CCc3cc(OCCN4CCC5(CC4)C(=O)Nc4ccc(Cl)cc45)cnc32)C1 (single isomer, unassigned) [Compound 290, 5-chloro-1′-[2-({7-oxo-8-[(trans)-3-ethyl-3-hydroxycyclobutyl]-5,6,7,8-tetrahydro-1,8-naphthyridin-3-yl}oxy)ethyl]-1,2-dihydrospiro[indole-3,4′-piperidin]-2-one]",2.76
3,"C[C@]1(O)C[C@H](N2C(=O)CCc3cc(OCCN4CCC5(CC4)C(=O)Nc4ccc(Cl)cc45)cnc32)C1 (single isomer, unassigned) [Compound 307, 5-chloro-1′-[2-({7-oxo-8-[(trans)-3-hydroxy-3-methylcyclobutyl]-5,6,7,8-tetrahydro-1,8-naphthyridin-3-yl}oxy)ethyl]-1,2-dihydrospiro[indole-3,4′-piperidin]-2-one]",2.61
4,"CS(=O)(=O)c1ccc(OCCN2CCC3(CC2)C(=O)N(CCO)c2ccc(Br)cc23)cc1 [Compound 24, 5-bromo-1-(2-hydroxyethyl)-1′-[2-(4-methanesulfonylphenoxy)ethyl]-1,2-dihydrospiro[indole-3,4′-piperidin]-2-one]",37.4
5,"O=C(c1ccc(OCCN2CCC3(CC2)C(=O)Nc2ccc(Cl)cc23)cc1F)N1CCS(=O)(=O)CC1 [Compound 232, 4-[4-(2-{5-chloro-2-oxo-1,2-dihydrospiro[indole-3,4′-piperidin]-1′-yl}ethoxy)-2-fluorobenzoyl]-1λ^6-thiomorpholine-1,1-dione]",2.17
6,"CS(=O)(=O)C1CN(C(=O)c2ccc(OCCN3CCC4(CC3)C(=O)Nc3ccc(Cl)cc34)cc2F)C1 [Compound 233, 5-chloro-1′-{2-[3-fluoro-4-(3-methanesulfonyl-azetidine-1-carbonyl)phenoxy]ethyl}-1,2-dihydrospiro[indole-3,4′-piperidin]-2-one]",4.25
7,"O=C(c1ccc(OCCN2CCC3(CC2)C(=O)Nc2ccc(Cl)cc23)cc1F)N1CC2(C1)CS(=O)(=O)C2 [Compound 239, 6-[4-(2-{5-chloro-2-oxo-1,2-dihydrospiro[indole-3,4′-piperidin]-1′-yl}ethoxy)-2-fluorobenzoyl]-2λ^6-thia-6-azaspiro[3.3]heptane-2,2-dione]",2.1
8,"O=C(c1c(F)cc(OCCN2CCC3(CC2)C(=O)Nc2ccc(Cl)cc23)cc1F)N1CCS(=O)(=O)CC1 [Compound 259, 4-[4-(2-{5-chloro-2-oxo-1,2-dihydrospiro[indole-3,4′-piperidin]-1′-yl}ethoxy)-2,6-difluorobenzoyl]-1λ^6-thiomorpholine-1,1-dione]",1.21
9,"CN1C(=O)C2(CCN(CCOc3cc(F)c(C(=O)N4CCS(=O)(=O)CC4)c(F)c3)CC2)c2cc(C#N)ccc21 [Compound 260, 1′-{2-[4-(1,1-dioxo-1λ^6-thiomorpholine-4-carbonyl)-3,5-difluorophenoxy]ethyl}-1-methyl-2-oxo-1,2-dihydrospiro[indole-3,4′-piperidine]-5-carbonitrile]",10.3
10,"CN1C(=O)C2(CCN(CCOc3ccc(C(=O)N4CCS(=O)(=O)CC4)c(C(F)(F)F)c3)CC2)c2cc(C#N)ccc21 [Compound 261, 1′-{2-[4-(1,1-dioxo-1λ^6-thiomorpholine-4-carbonyl)-3-(trifluoromethyl)phenoxy]ethyl}-1-methyl-2-oxo-1,2-dihydrospiro[indole-3,4′-piperidine]-5-carbonitrile]",2.29
11,"O=C(c1ccc(OCCN2CCC3(CC2)C(=O)Nc2ccc(Cl)cc23)cc1C(F)(F)F)N1CCS(=O)(=O)CC1 [Compound 272, 4-[4-(2-{5-chloro-2-oxo-1,2-dihydrospiro[indole-3,4′-piperidin]-1′-yl}ethoxy)-2-(trifluoromethyl)benzoyl]-1λ^6-thiomorpholine-1,1-dione]",1
12,"CS(=O)(=O)N1CC2(CN(C(=O)c3ccc(OCCN4CCC5(CC4)C(=O)Nc4ccc(Cl)cc45)cc3F)C2)C1 [Compound 273, 5-chloro-1′-[2-(3-fluoro-4-{6-methanesulfonyl-2,6-diazaspiro[3.3]heptane-2-carbonyl}phenoxy)ethyl]-1,2-dihydrospiro[indole-3,4′-piperidin]-2-one]",5.2
13,"C[C@]1(O)C[C@@H](N2C(=O)CCc3cc(OCCN4CCC5(CC4)C(=O)Nc4ccc(C(F)F)cc45)cnc32)C1 [Compound 274, 5-(difluoromethyl)-1′-[2-({7-oxo-8-[(cis)-3-hydroxy-3-methylcyclobutyl]-5,6,7,8-tetrahydro-1,8-naphthyridin-3-yl}oxy)ethyl]-1,2-dihydrospiro[indole-3,4′-piperidin]-2-one]",18.8
14,"C[C@]1(O)C[C@@H](N2C(=O)CCc3cc(OCCN4CCC5(CC4)C(=O)Nc4ccc(Cl)cc45)cnc32)C1 [Compound 275, 5-chloro-1′-[2-({7-oxo-8-[(cis)-3-hydroxy-3-methylcyclobutyl]-5,6,7,8-tetrahydro-1,8-naphthyridin-3-yl}oxy)ethyl]-1,2-dihydrospiro[indole-3,4′-piperidin]-2-one]",3.89
15,"CS(=O)(=O)C1(c2ncc(OCCN3CCC4(CC3)C(=O)Nc3ccc(Cl)cc34)cn2)COC1 [Compound 276, 5-chloro-1′-(2-{[2-(3-methanesulfonyloxetan-3-yl)pyrimidin-5-yl]oxy}ethyl)-1,2-dihydrospiro[indole-3,4′-piperidin]-2-one]",10.4
16,"CS(=O)(=O)C1(c2ncc(OCCN3CCC4(CC3)C(=O)Nc3ccc(C#N)cc34)cc2F)CC1 [Compound 283, 1′-(2-{[5-fluoro-6-(1-methanesulfonylcyclopropyl)pyridin-3-yl]oxy}ethyl)-2-oxo-1,2-dihydrospiro[indole-3,4′-piperidine]-5-carbonitrile]",5.08
17,"CC(O)c1ncc(OCCN2CCC3(CC2)C(=O)Nc2ccc(Cl)cc23)cn1 (centres unmarked) [Compound 284, 5-chloro-1′-(2-{[2-(1-hydroxyethyl)pyrimidin-5-yl]oxy}ethyl)-1,2-dihydrospiro[indole-3,4′-piperidin]-2-one]",105
18,"C[C@]1(O)C[C@@H](N2C(=O)OCc3cc(OCCN4CCC5(CC4)C(=O)Nc4ccc(Cl)cc45)cnc32)C1 [Compound 289, 5-chloro-1′-[2-({2-oxo-1-[(cis)-3-hydroxy-3-methylcyclobutyl]-1H,2H,4H-pyrido[2,3-d][1,3]oxazin-6-yl]oxy)ethyl]-1,2-dihydrospiro[indole-3,4′-piperidin]-2-one]",2.22
19,"CC1(O)CN(c2ncc(OCCN3CCC4(CC3)C(=O)Nc3ccc(Cl)cc34)cn2)C1 [Compound 300, 5-chloro-1′-(2-{[2-(3-hydroxy-3-methylazetidin-1-yl)pyrimidin-5-yl]oxy}ethyl)-1,2-dihydrospiro[indole-3,4′-piperidin]-2-one]",33.3

# Same assay, conditions: differentiated human podocytes, doxycycline-induced APOL1 G2, CellTiter-Glo; geometric mean of at least 2 runs; † = single run
row,SMILES,EC50 [nM]
1,"CC(O)c1ncc(OCCN2CCC3(CC2)C(=O)Nc2ccc(C(F)F)cc23)cc1C(F)(F)F (single isomer, unassigned) [Compound 288, 5-(difluoromethyl)-1′-[2-({6-[(1R) or (1S)-1-hydroxyethyl]-5-(trifluoromethyl)pyridin-3-yl}oxy)ethyl]-1,2-dihydrospiro[indole-3,4′-piperidin]-2-one]",19.5
